Experiments:
Type in all cases: cell-free
[1] = molecular target: Cyclin-dependent kinase 14 (Homo sapiens) (UniProt O94921); experiment: Inhibition of human PFTAIRE1 in HL-60 cells lysate assessed as reduction of labeling of acyl-phosphate ATP probe at 100 nM
[2] = molecular target: Serine/threonine-protein kinase ATR (Homo sapiens) (UniProt Q13535); experiment: Inhibition of human ATR in HL-60 cells lysate assessed as reduction of labeling of acyl-phosphate ATP probe at 100 nM
[3] = molecular target: T1, Phosphatidylinositol 5-phosphate 4-kinase type-2 gamma (Homo sapiens) (UniProt Q8TBX8); experiment: Inhibition of human PIP4K2C in HL-60 cells lysate assessed as reduction of labeling of acyl-phosphate ATP probe at 100 nM
T1 sequence (whole entry): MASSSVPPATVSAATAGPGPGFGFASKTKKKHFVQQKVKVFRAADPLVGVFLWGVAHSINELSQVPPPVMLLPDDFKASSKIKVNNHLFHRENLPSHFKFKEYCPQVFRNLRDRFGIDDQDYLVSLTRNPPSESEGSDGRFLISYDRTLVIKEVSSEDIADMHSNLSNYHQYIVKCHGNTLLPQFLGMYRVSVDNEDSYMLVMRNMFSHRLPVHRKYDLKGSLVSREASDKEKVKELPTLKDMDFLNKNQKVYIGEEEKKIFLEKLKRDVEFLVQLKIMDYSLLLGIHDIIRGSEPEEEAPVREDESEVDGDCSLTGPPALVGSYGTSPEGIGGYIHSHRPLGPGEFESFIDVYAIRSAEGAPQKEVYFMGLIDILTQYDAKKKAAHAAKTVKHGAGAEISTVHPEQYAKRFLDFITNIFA

[4] = molecular target: Serine/threonine-protein kinase Nek6 (Homo sapiens) (UniProt Q9HC98); experiment: Inhibition of human NEK6 in HL-60 cells lysate assessed as reduction of labeling of acyl-phosphate ATP probe at 100 nM
[5] = molecular target: Wee1-like protein kinase (Homo sapiens) (UniProt P30291); experiment: Inhibition of human Wee1 in HL-60 cells lysate assessed as reduction of labeling of acyl-phosphate ATP probe at 100 nM
[6] = molecular target: Serine/threonine-protein kinase 10 (Homo sapiens) (UniProt O94804); experiment: Inhibition of human LOK in HL-60 cells lysate assessed as reduction of labeling of acyl-phosphate ATP probe at 100 nM
[7] = molecular target: T2, Dual specificity mitogen-activated protein kinase kinase 6 (Homo sapiens) (UniProt P52564); experiment: Inhibition of human MAP2K6 in HL-60 cells lysate assessed as reduction of labeling of acyl-phosphate ATP probe at 100 nM
T2 sequence (whole entry): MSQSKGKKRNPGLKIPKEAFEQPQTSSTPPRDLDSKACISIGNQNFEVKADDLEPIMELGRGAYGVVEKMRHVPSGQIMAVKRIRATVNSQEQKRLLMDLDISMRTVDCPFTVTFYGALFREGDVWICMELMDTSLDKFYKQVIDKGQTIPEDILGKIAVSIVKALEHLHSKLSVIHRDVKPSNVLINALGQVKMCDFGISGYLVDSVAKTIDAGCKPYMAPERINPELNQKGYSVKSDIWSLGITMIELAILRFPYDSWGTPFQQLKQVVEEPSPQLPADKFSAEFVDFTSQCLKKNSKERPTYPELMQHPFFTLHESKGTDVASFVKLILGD

[8] = molecular target: Tyrosine-protein kinase HCK (Homo sapiens) (UniProt P08631); experiment: Inhibition of human HCK in HL-60 cells lysate assessed as reduction of labeling of acyl-phosphate ATP probe at 100 nM
[9] = molecular target: Protein-tyrosine kinase 2-beta (Homo sapiens) (UniProt Q14289); experiment: Inhibition of human PYK2 in HL-60 cells lysate assessed as reduction of labeling of acyl-phosphate ATP probe at 100 nM
[10] = molecular target: Leucine-rich repeat serine/threonine-protein kinase 2 (Homo sapiens) (UniProt Q5S007); experiment: Inhibition of human LRRK2 in HL-60 cells lysate assessed as reduction of labeling of acyl-phosphate ATP probe at 100 nM
[11] = molecular target: T3, Mixed lineage kinase domain-like protein (Homo sapiens) (UniProt Q8NB16); experiment: Inhibition of human MLKL in HL-60 cells lysate assessed as reduction of labeling of acyl-phosphate ATP probe at 100 nM
T3 sequence (whole entry): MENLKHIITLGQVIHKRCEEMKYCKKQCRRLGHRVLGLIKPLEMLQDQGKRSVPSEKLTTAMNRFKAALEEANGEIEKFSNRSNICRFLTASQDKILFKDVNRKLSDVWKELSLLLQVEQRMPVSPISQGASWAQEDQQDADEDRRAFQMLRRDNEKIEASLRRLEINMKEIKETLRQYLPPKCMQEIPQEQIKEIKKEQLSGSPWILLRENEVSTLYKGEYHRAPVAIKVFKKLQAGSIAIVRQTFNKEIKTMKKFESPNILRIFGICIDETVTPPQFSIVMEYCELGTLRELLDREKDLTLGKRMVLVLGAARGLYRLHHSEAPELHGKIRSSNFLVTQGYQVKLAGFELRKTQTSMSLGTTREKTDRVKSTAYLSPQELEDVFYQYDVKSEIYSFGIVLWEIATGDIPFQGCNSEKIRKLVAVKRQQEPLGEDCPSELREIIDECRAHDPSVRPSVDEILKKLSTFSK

[12] = molecular target: T4, Receptor-interacting serine/threonine-protein kinase 1 (Homo sapiens) (UniProt Q13546); experiment: Inhibition of human RIPK1 in HL-60 cells lysate assessed as reduction of labeling of acyl-phosphate ATP probe at 100 nM
T4 sequence (whole entry): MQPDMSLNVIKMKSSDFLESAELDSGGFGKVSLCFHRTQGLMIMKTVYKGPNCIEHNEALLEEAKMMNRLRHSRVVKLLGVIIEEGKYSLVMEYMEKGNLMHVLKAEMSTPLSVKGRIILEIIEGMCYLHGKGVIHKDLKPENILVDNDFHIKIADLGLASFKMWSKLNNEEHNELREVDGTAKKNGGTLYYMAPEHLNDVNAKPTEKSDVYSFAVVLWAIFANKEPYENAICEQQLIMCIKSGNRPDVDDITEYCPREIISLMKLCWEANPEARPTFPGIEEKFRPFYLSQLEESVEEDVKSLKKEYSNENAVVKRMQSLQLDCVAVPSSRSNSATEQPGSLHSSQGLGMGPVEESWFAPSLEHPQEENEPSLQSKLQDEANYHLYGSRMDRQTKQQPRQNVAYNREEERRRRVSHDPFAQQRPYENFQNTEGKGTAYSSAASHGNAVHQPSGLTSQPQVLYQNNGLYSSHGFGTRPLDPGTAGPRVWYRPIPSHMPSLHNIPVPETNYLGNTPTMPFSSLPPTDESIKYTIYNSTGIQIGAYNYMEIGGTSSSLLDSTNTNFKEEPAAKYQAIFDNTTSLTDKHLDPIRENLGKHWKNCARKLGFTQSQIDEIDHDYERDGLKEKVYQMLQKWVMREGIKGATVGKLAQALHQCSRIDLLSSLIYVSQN

[13] = molecular target: Mitogen-activated protein kinase kinase kinase 20 (Homo sapiens) (UniProt Q9NYL2); experiment: Inhibition of human ZAK in HL-60 cells lysate assessed as reduction of labeling of acyl-phosphate ATP probe at 100 nM

Measured: inhibition

Chain of Wee1-like protein kinase (Homo sapiens) (P30291 whole entry, looked up): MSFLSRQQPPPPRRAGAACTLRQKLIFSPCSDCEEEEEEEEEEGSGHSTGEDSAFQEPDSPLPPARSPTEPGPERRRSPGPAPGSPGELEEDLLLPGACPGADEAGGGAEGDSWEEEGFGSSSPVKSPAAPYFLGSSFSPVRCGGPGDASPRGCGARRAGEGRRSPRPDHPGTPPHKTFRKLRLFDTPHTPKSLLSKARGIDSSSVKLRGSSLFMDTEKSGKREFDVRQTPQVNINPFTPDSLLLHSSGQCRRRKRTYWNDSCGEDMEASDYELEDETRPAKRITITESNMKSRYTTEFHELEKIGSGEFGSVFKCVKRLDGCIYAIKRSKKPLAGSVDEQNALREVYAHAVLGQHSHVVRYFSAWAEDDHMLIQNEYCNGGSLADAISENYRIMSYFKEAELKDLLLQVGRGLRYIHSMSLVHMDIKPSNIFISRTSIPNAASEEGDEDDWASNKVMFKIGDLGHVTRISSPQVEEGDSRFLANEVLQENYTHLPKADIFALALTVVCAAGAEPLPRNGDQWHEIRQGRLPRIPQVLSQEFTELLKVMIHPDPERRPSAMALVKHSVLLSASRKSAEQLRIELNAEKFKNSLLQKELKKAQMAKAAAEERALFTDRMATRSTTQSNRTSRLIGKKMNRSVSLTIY
Chain of Leucine-rich repeat serine/threonine-protein kinase 2 (Homo sapiens) (Q5S007 whole entry, the tested form may be a part): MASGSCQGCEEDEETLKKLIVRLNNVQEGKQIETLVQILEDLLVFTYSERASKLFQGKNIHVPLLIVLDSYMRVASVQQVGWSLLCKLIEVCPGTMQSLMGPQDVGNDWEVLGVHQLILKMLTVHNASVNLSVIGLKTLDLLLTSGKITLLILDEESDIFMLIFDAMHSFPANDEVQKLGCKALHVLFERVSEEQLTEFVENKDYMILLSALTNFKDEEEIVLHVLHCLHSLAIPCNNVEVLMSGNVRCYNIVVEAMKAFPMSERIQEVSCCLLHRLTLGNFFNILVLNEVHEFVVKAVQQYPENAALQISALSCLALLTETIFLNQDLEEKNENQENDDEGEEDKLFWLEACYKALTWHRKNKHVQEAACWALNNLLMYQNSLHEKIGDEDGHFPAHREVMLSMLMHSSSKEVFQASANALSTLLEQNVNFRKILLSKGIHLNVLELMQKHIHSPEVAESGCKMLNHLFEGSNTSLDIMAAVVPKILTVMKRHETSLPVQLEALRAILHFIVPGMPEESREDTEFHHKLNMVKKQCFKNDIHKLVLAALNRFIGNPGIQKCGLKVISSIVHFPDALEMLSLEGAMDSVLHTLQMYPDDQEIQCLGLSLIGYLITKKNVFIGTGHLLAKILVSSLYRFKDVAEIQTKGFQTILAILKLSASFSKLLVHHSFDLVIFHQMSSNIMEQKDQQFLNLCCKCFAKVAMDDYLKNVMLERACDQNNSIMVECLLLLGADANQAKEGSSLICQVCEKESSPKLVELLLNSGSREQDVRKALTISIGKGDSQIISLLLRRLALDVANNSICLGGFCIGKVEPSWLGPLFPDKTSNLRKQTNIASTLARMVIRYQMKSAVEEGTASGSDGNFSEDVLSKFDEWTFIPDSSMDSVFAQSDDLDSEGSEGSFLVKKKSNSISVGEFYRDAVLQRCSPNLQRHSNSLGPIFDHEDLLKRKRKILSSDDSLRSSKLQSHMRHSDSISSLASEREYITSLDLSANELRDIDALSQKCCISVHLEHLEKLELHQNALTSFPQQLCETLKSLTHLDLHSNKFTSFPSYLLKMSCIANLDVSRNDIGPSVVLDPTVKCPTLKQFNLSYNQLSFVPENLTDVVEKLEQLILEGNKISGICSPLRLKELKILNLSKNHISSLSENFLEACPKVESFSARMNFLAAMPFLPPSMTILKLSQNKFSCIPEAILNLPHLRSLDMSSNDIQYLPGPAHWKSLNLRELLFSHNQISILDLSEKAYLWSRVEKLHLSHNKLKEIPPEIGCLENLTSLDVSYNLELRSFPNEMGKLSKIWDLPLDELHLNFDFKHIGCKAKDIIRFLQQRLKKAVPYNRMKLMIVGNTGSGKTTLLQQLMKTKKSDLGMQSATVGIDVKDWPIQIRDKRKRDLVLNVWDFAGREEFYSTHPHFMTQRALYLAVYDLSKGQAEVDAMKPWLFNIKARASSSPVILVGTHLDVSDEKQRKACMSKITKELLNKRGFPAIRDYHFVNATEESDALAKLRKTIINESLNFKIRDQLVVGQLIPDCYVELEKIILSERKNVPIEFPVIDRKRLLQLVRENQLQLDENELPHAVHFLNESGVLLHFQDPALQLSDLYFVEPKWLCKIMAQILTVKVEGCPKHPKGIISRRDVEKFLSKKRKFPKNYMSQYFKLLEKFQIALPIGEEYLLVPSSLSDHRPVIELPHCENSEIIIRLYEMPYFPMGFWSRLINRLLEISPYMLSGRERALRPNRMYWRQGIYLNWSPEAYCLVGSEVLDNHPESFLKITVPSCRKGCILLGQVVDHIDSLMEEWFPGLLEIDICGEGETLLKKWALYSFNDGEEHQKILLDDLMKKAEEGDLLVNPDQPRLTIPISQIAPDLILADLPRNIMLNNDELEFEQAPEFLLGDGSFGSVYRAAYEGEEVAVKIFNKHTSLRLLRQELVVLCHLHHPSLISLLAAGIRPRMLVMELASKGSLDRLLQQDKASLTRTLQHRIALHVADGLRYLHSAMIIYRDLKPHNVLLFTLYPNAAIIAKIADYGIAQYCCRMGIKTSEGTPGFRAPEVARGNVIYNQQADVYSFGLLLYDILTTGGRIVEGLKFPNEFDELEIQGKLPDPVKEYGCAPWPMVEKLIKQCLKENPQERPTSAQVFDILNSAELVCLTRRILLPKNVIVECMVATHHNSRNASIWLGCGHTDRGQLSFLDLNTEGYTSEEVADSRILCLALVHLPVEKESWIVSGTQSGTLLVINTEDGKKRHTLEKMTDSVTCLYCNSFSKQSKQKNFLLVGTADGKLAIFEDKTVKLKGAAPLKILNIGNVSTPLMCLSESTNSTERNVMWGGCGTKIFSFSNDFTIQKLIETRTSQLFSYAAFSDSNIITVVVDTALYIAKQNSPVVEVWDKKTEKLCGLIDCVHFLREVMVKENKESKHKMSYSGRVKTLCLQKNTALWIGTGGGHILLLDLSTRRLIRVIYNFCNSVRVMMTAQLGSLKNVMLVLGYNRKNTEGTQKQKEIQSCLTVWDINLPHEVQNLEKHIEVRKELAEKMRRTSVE
Chain of Tyrosine-protein kinase HCK (Homo sapiens) (P08631 2-526 limits assumed): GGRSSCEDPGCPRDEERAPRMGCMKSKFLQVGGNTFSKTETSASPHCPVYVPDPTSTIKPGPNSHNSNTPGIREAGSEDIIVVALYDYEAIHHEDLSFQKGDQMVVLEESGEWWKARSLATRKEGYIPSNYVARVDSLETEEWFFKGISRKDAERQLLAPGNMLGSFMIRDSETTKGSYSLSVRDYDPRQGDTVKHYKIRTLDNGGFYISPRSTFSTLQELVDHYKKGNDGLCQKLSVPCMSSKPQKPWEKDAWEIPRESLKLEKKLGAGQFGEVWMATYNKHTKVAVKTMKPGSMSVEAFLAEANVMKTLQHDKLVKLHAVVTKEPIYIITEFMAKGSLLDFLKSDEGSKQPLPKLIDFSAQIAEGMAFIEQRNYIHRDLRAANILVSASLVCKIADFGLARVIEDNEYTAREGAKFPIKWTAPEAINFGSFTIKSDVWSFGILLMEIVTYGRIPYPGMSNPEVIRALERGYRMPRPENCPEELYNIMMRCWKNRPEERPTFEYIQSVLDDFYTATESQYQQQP
Chain of Protein-tyrosine kinase 2-beta (Homo sapiens) (Q14289 whole entry, looked up): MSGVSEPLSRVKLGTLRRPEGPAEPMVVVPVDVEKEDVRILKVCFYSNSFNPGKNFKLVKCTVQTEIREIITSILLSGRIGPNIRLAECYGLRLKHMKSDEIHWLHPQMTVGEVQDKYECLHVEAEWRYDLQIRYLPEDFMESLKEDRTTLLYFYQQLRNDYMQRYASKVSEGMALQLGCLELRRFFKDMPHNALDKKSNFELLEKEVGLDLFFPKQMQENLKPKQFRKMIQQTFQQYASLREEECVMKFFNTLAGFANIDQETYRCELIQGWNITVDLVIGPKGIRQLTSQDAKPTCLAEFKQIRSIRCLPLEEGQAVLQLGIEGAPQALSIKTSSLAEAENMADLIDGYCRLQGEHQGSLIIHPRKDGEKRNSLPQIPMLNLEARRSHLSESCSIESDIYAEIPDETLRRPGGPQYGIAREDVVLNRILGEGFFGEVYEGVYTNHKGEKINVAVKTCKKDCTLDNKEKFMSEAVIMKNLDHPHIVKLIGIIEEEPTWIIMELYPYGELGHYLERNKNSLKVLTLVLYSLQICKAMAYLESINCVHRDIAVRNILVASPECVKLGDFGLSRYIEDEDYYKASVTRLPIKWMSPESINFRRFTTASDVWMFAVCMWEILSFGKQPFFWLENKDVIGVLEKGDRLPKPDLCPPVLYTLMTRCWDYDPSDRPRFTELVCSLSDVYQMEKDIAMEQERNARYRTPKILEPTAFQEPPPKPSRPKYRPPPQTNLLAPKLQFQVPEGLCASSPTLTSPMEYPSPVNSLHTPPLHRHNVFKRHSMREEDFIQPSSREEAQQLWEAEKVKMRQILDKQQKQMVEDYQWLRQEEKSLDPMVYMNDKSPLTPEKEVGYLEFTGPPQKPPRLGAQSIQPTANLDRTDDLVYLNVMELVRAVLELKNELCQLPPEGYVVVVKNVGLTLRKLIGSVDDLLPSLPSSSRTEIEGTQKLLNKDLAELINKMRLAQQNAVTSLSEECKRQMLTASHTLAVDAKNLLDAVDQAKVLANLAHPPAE
Chain of Serine/threonine-protein kinase Nek6 (Homo sapiens) (Q9HC98 whole entry): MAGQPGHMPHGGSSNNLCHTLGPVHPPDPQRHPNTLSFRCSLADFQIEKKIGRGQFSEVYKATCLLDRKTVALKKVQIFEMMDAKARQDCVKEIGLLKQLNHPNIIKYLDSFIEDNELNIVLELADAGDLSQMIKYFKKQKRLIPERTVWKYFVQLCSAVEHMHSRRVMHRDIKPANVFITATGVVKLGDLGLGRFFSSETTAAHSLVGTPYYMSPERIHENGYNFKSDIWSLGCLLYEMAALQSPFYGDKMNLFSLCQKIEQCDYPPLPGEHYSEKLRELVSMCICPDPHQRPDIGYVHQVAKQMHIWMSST

C[C@H]1COc2c(NCCCn3cccn3)c(F)c(N)c3c(=O)c(C#N)cn1c23
< 35%: all assays above

C[C@H]1COc2c(NCCCc3ccccn3)c(F)c(N)c3c(=O)c(C#N)cn1c23
< 35%: all assays above

C[C@H]1COc2c(NCCCn3cccn3)c(F)c(N)c3c(=O)c(C(=O)O)cn1c23
< 35%: all assays above

C[C@H]1COc2c(NCCCc3ccccn3)c(F)c(N)c3c(=O)c(C(=O)O)cn1c23
< 35%: all assays above

— ChEMBL document CHEMBL1938230, “6-Position optimization of tricyclic 4-quinolone-based inhibitors of glycogen synthase kinase-3β: discovery of nitrile derivatives with picomolar potency” (Bioorg Med Chem Lett, 2012)
